Key:
Assay in all cases: radiometric filter-binding kinase assay, Kinase HotSpot
Settings in all cases: compound 0.5 µM; ATP 10 µM
[1] = biological target: RPS6KA2 KD1 KD2 (human) (UniProt Q15349)
[2] = biological target: YES1 (human) (UniProt P07947)
[3] = biological target: CSNK2A1 (human) (UniProt P68400)
[4] = biological target: PRKCD (human) (UniProt Q05655)
[5] = biological target: PRKCH (human) (UniProt P24723)
[6] = biological target: RPS6KA1 KD1 KD2 (human) (UniProt Q15418)
[7] = biological target: BLK (human) (UniProt P51451)
[8] = biological target: STK24 (human) (UniProt Q9Y6E0)
[9] = biological target: MAPKAPK5 (human) (UniProt Q8IW41)
[10] = biological target: TAOK1 (human) (UniProt Q7L7X3)
[11] = biological target: MAPK14 (human) (UniProt Q16539)
[12] = biological target: DDR2 (human) (UniProt Q16832)
[13] = biological target: GRK4 (human) (UniProt P32298)
[14] = biological target: MLTK (human) (UniProt Q9NYL2)
[15] = biological target: MKNK2 (human) (UniProt Q9HBH9)
[16] = biological target: RPS6KA6 KD1 KD2 (human) (UniProt Q9UK32)
[17] = biological target: CLK3 (human) (UniProt P49761)
[18] = biological target: IKBKB (human) (UniProt O14920)
[19] = biological target: TXK (human) (UniProt P42681)
[20] = biological target: WEE1 (human) (UniProt P30291)
[21] = biological target: TAOK2 (human) (UniProt Q9UL54)
[22] = biological target: RET (human) (UniProt P07949)
[23] = biological target: NEK4 (human) (UniProt P51957)
[24] = biological target: ABL1 (human) (UniProt P00519)
[25] = biological target: NTRK3 (human) (UniProt Q16288)
[26] = biological target: CAMK2B (human) (UniProt Q13554)
[27] = biological target: PHKG1 (human) (UniProt Q16816)
[28] = biological target: MAPK1 (human) (UniProt P28482)
[29] = biological target: RPS6KA4 KD2 (human) (UniProt O75676)
[30] = biological target: ULK2 (human) (UniProt Q8IYT8)
[31] = biological target: MAPKAPK2 (human) (UniProt P49137)
[32] = biological target: RPS6KB2 (human) (UniProt Q9UBS0)
[33] = biological target: BRSK2 (human) (UniProt Q8IWQ3)
[34] = biological target: CDK4 CCND1 (human) (UniProt P24385+P11802)
[35] = biological target: DCLK2 (human) (UniProt Q8N568)
[36] = biological target: TYRO3 (human) (UniProt Q06418)
[37] = biological target: AURKA (human) (UniProt O14965)
[38] = biological target: STK17A (human) (UniProt Q9UEE5)
[39] = biological target: LTK (human) (UniProt P29376)
[40] = biological target: FGFR1 (human) (UniProt P11362)
[41] = biological target: EPHB3 (human) (UniProt P54753)
[42] = biological target: CDK3 CCNE1 (human) (UniProt Q00526+P24864)

Chain of DDR2 (human) (Q16832 whole entry, looked up): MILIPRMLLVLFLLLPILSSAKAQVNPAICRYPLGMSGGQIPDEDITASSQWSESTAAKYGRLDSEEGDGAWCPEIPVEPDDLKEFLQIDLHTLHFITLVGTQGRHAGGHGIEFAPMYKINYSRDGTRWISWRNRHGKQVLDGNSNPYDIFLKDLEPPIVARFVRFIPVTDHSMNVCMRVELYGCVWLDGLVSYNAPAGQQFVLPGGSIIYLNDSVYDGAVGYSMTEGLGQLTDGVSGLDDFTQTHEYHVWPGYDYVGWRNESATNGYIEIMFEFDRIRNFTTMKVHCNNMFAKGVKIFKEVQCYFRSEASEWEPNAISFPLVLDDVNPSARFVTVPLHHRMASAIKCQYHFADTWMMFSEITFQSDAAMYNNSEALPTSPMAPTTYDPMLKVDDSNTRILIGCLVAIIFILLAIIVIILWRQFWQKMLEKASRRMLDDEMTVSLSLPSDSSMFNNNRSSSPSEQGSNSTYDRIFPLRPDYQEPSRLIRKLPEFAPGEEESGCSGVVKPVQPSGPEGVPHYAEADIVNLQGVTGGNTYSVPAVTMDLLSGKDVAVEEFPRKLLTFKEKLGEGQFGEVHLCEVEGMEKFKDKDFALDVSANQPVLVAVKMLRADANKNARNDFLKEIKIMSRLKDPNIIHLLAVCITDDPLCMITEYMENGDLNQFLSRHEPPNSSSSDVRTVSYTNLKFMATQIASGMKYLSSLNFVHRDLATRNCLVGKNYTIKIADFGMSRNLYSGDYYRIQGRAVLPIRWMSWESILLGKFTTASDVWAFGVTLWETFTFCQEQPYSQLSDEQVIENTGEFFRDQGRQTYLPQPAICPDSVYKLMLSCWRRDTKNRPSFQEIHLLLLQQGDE
Chain of TXK (human) (P42681 whole entry, looked up): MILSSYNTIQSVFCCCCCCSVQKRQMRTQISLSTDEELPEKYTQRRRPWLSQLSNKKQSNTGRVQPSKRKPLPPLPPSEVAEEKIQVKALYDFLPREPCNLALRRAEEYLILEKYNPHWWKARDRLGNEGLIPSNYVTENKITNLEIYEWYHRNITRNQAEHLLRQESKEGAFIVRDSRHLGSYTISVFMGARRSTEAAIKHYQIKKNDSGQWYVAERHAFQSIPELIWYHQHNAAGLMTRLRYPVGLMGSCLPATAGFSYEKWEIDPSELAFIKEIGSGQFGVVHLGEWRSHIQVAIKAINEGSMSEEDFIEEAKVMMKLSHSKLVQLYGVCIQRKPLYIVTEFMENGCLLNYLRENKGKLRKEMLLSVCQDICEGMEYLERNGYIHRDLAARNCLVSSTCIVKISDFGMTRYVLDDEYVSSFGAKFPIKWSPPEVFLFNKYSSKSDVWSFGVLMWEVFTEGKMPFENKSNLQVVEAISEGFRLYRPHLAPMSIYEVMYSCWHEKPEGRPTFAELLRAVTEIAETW
Chain of YES1 (human) (P07947 whole entry, looked up): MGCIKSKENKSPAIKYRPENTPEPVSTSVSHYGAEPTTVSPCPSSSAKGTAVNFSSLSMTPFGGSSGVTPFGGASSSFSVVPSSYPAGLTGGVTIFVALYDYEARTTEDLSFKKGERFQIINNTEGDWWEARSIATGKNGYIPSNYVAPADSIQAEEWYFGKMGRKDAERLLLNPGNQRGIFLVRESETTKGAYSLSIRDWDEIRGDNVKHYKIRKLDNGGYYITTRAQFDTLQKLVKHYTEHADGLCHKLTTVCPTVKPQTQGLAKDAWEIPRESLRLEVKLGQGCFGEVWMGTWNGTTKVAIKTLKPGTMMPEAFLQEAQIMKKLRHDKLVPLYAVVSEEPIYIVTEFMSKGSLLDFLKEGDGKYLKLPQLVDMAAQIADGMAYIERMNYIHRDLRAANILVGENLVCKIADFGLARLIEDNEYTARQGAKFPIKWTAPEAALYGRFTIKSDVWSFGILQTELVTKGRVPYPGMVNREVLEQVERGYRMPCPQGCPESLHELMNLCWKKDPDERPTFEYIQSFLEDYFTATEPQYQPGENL
Chain of TAOK2 (human) (Q9UL54 whole entry, looked up): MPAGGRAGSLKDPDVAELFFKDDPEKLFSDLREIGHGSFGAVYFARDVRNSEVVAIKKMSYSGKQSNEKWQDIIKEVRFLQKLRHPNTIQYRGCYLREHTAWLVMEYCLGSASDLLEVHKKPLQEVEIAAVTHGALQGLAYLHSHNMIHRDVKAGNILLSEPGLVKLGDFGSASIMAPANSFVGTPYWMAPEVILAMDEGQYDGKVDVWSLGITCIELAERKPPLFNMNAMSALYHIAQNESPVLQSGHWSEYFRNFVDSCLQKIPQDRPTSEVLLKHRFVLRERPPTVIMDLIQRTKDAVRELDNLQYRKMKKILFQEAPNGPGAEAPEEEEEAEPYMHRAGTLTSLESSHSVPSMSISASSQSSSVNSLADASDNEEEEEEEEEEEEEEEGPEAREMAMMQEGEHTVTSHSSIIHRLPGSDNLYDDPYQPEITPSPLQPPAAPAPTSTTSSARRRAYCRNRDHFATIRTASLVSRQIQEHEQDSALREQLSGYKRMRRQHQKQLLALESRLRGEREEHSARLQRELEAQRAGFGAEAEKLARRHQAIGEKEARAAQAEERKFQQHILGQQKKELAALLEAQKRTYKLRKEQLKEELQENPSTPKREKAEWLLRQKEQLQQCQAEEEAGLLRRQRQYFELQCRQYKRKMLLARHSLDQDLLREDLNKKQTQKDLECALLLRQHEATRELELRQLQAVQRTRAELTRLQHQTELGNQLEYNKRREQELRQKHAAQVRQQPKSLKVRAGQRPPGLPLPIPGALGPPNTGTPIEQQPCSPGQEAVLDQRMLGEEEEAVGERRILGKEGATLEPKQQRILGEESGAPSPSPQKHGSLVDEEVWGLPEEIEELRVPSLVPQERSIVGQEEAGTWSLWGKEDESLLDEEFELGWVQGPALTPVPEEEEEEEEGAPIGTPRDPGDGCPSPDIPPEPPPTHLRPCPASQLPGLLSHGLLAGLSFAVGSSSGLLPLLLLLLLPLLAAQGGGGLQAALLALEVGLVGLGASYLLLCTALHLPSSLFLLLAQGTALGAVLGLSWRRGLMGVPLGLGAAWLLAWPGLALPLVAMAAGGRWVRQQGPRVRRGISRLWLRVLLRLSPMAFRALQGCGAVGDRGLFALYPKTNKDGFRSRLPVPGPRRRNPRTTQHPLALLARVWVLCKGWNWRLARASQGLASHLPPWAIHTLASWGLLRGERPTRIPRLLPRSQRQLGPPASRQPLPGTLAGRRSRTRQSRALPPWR
Chain of RET (human) (P07949 whole entry, looked up): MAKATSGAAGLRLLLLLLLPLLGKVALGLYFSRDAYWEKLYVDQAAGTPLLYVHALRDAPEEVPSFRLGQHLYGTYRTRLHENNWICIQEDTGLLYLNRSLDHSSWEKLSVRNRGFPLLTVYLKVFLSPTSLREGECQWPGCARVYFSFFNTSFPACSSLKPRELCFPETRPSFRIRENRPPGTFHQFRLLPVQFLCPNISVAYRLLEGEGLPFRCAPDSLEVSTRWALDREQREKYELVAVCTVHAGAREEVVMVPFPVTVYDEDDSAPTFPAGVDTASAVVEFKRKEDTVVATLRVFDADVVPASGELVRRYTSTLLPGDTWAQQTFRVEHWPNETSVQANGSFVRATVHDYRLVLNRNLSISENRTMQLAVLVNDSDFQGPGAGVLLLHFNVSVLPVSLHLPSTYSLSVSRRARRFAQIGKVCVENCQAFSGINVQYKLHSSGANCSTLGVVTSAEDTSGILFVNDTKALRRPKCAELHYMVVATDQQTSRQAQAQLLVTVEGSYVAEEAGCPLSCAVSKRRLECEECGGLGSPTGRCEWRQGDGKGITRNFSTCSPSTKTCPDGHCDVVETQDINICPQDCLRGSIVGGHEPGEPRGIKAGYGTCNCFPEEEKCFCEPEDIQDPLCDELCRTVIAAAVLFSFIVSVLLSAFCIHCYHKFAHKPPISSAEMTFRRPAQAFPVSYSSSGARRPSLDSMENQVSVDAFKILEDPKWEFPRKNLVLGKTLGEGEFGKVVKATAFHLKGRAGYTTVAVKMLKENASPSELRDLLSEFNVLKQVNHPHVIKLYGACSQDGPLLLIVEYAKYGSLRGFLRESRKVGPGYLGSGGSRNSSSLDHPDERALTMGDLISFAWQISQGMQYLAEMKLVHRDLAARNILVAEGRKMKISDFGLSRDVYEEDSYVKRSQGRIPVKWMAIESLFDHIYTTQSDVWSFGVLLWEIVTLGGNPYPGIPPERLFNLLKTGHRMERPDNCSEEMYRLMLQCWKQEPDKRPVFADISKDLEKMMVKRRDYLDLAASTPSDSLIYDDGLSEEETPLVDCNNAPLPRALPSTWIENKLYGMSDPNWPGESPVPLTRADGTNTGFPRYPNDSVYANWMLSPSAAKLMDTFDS
Chain of RPS6KB2 (human) (Q9UBS0 whole entry, looked up): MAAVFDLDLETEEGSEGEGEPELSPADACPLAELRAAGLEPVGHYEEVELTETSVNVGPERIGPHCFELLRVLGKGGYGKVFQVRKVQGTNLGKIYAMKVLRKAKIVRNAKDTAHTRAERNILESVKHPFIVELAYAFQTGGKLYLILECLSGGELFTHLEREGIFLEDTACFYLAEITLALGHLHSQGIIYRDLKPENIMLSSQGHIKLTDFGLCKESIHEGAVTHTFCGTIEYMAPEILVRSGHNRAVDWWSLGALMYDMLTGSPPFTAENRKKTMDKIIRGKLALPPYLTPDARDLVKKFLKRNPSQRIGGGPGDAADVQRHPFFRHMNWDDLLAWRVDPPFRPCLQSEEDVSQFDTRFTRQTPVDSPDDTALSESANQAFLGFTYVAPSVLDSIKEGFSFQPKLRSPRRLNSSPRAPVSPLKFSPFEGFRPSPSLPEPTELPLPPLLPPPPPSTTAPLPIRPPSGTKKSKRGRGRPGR

O=C1Nc2ccccc2/C1=C1\Nc2ccccc2\C1=N/O was tested, and the residual activity [1] was 42.6%, the residual activity [2] was 45.1% and the residual activity [3] was 78.2%. It also gave a residual activity [4] of 95%, a residual activity [5] of 74.4% and a residual activity [6] of 39.6%. The residual activity [7] was 75.1%, the residual activity [8] was 62.6% and the residual activity [9] was 101%. The residual activity [10] was 102%, the residual activity [11] was 97.2% and the residual activity [12] was 101%. The residual activity [13] was 98.3%, the residual activity [14] was 89.6% and the residual activity [15] was 82.1%. The residual activity [16] was 52.2%, the residual activity [17] was 48.2% and the residual activity [18] was 96.1%. It also gave a residual activity [19] of 66.7%, a residual activity [20] of 87.1% and a residual activity [21] of 96.3%. For the same compound, the residual activity [22] was 8.05%, the residual activity [23] was 95% and the residual activity [24] was 82.5%. For the same compound, the residual activity [25] was 2.17%, the residual activity [26] was 87.5% and the residual activity [27] was 31.5%. It also gave a residual activity [28] of 96.6%, a residual activity [29] of 58.7% and a residual activity [30] of 103%. The residual activity [31] was 105%, the residual activity [32] was 107% and the residual activity [33] was 28%. It also gave a residual activity [34] of 70.9%, a residual activity [35] of 88.5% and a residual activity [36] of 79.6%. The residual activity [37] was 21.3%, the residual activity [38] was 46% and the residual activity [39] was 62.3%. It also gave a residual activity [40] of 52.2%, a residual activity [41] of 92.3% and a residual activity [42] of 52.3%.

For O=C(Nc1cccc(Nc2cc(Nc3cccc(C(F)(F)F)c3)ncn2)c1)C1CC1, the residual activity [1] was 102%, the residual activity [2] was 99.6% and the residual activity [3] was 92.6%. The residual activity [4] was 101%, the residual activity [5] was 88.2% and the residual activity [6] was 95.1%. For the same compound, the residual activity [7] was 101%, the residual activity [8] was 97.1% and the residual activity [9] was 101%. It also gave a residual activity [10] of 100%, a residual activity [11] of 98.2% and a residual activity [12] of 106%. The residual activity [13] was 104%, the residual activity [14] was 97.1% and the residual activity [15] was 83.8%. It also gave a residual activity [16] of 96.6%, a residual activity [17] of 102% and a residual activity [18] of 100%. It also gave a residual activity [19] of 97.1%, a residual activity [20] of 94% and a residual activity [21] of 103%. It also gave a residual activity [22] of 109%, a residual activity [23] of 90.6% and a residual activity [24] of 103%. For the same compound, the residual activity [25] was 95.1%, the residual activity [26] was 105% and the residual activity [27] was 100%. For the same compound, the residual activity [28] was 101%, the residual activity [29] was 100% and the residual activity [30] was 102%. It also gave a residual activity [31] of 104%, a residual activity [32] of 103% and a residual activity [33] of 95.8%. For the same compound, the residual activity [34] was 103%, the residual activity [35] was 101% and the residual activity [36] was 85.4%. For the same compound, the residual activity [37] was 107%, the residual activity [38] was 99.2% and the residual activity [39] was 96.8%. It also gave a residual activity [40] of 103%, a residual activity [41] of 87.9% and a residual activity [42] of 94.8%.

In the case of O=C1Nc2ccccc2/C1=C1/Nc2ccccc2/C1=N\OCCC(O)CO (stereo unspecified), the residual activity [1] is reported as 12.1%, the residual activity [2] is reported as 13.4% and the residual activity [3] is reported as 57.6%. The residual activity [4] was 80.6%, the residual activity [5] was 82.2% and the residual activity [6] was 8.85%. The residual activity [7] was 39.1%, the residual activity [8] was 51.9% and the residual activity [9] was 86.8%. For the same compound, the residual activity [10] was 98.2%, the residual activity [11] was 101% and the residual activity [12] was 86.1%. For the same compound, the residual activity [13] was 74.7%, the residual activity [14] was 76.4% and the residual activity [15] was 72.4%. For the same compound, the residual activity [16] was 16.4%, the residual activity [17] was 16.1% and the residual activity [18] was 90.5%. The residual activity [19] was 25.6%, the residual activity [20] was 82% and the residual activity [21] was 83.4%. For the same compound, the residual activity [22] was 1.22%, the residual activity [23] was 83.9% and the residual activity [24] was 71.9%. For the same compound, the residual activity [25] was 1.01%, the residual activity [26] was 57.9% and the residual activity [27] was 8.06%. The residual activity [28] was 89.8%, the residual activity [29] was 21.7% and the residual activity [30] was 102%. The residual activity [31] was 98.4%, the residual activity [32] was 106% and the residual activity [33] was 33.3%. The residual activity [34] was 96.4%, the residual activity [35] was 86.4% and the residual activity [36] was 71.5%. It also gave a residual activity [37] of 9.78%, a residual activity [38] of 22.5% and a residual activity [39] of 34.7%. The residual activity [40] was 27.9% and the residual activity [42] was 65.2%.

In the case of CC(C)[C@H](CO)Nc1nc(Nc2cc(N)cc(Cl)c2)c2ncn(C(C)C)c2n1, the residual activity [1] is reported as 48.7%, the residual activity [2] is reported as 7.03% and the residual activity [3] is reported as 99.3%. For the same compound, the residual activity [4] was 87.6%, the residual activity [5] was 99.4% and the residual activity [6] was 37.2%. For the same compound, the residual activity [7] was 79.6%, the residual activity [8] was 75.9% and the residual activity [9] was 95.8%. The residual activity [10] was 79.9%, the residual activity [11] was 98.9% and the residual activity [12] was 128%. It also gave a residual activity [13] of 103%, a residual activity [14] of 92.3% and a residual activity [15] of 113%. For the same compound, the residual activity [16] was 46.1%, the residual activity [17] was 85.5% and the residual activity [18] was 104%. The residual activity [19] was 42.5%, the residual activity [20] was 70.8% and the residual activity [21] was 82.2%. For the same compound, the residual activity [22] was 61.6%, the residual activity [23] was 80.2% and the residual activity [24] was 45.5%. The residual activity [25] was 4.42%, the residual activity [26] was 98.2% and the residual activity [27] was 81.1%. The residual activity [28] was 95.4%, the residual activity [29] was 89.3% and the residual activity [30] was 74.9%. For the same compound, the residual activity [31] was 92.8%, the residual activity [32] was 98.2% and the residual activity [33] was 88.2%. It also gave a residual activity [35] of 105%, a residual activity [36] of 103% and a residual activity [37] of 80.5%. For the same compound, the residual activity [38] was 96.3%, the residual activity [39] was 103% and the residual activity [40] was 76.7%. It also gave a residual activity [41] of 95.3% and a residual activity [42] of 31.9%.
